From patent publication US9018381B2, “Chemical compounds” (AstraZeneca AB, priority 2010, dated 2015)

Experiments:
Bcl-XL = Bcl-XL (Homo sapiens (Human), UniProt Q07817); assay: Bcl-XL FP assay (fluorescence polarization competitive binding); settings: C-terminal 6×HIS tagged Bcl-XL (aa 1-209), FITC-Bim BH-3 peptide tracer
Text: (§1) Bcl-xL and Bcl-2 FP binding affinity of compound(s) of Formulae (I), (I-a), (I-b), (I-c), (I-d) and/or (I-e) may be determined using a variety of known methods. One such assay is a sensitive and quantitative in vitro binding assay using fluorescence polarization (“FP”) described by Wang, J.-L.; Zhang, Z-J.; Choksi, S.; Sjam. S.; Lu, Z.; Croce, C. M.; Alnemri, E. S.; Komgold, R.; Huang, Z. Cell permeable Bcl-2 binding peptides: a chemical approach to apoptosis induction in tumor cells. Cancer Res. 2000, 60, 1498-1502).
(§2) Additionally, the binding affinity of compound(s) of Formulae (I), (I-a), (I-b), (I-c), (I-d) and/or (I-e) to Bcl-2 protein in vitro was determined by a competitive binding assay based on fluorescence polarization. For example, fluorescence polarization (“FP”) assays may be developed using a c-terminal 6×HIS tagged Bcl-2 (aa 1-204) and a C-terminal 6×HIS tagged Bcl-XL (aa 1-209). […] Dilutions of either Bcl-2 (1.3 nM) or Bcl-XL (0.8 nM) may be added to serial dilutions of antagonist and incubated for one hour prior to the addition of 2 nM of fluorescent peptide tracer (Anaspec, Fremont, Calif.) in the assay buffer. Final assay buffer conditions may be 20 mM HEPES, pH 7.5, 1 mM DTT, 0.005% Tween-20 and 50 mM NaCl. Samples may be read after 20-minute incubation. Fluorescence polarization values may be plotted as a function of the antagonist concentration.

Bcl-2 = Bcl-2 (Homo sapiens (Human), UniProt P10415); assay: Bcl-2 FP assay (fluorescence polarization competitive binding); settings: c-terminal 6×HIS tagged Bcl-2 (aa 1-204), FITC-Bim BH-3 peptide tracer
Chain of Bcl-2 (P10415 1-204): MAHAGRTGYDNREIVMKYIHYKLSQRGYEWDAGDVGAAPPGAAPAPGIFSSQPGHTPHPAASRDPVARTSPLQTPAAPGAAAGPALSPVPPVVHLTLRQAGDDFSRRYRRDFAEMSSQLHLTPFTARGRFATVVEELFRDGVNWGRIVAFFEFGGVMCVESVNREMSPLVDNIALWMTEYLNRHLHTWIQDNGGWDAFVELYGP
Text: as §1, §2

Chain of Bcl-XL (Q07817 1-209): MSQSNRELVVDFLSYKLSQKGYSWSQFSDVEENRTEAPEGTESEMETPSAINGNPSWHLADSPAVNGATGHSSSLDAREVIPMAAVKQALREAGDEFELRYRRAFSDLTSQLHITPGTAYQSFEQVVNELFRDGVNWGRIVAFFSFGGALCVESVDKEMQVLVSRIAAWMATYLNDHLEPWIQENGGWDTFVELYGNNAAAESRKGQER

Compound: O=C(NS(=O)(=O)c1ccc(N[C@H](CCN2CCN(C[C@H](O)CF)CC2)CSc2ccccc2)c(S(=O)(=O)C(F)(F)F)c1)c1ccc(N2CCC([C@@H](O)c3ccccc3-c3ccc(Cl)cc3)CC2)cc1 (single isomer, unassigned) [Example 6]
- IC50 (Bcl-XL): 2 nM
- IC50 (Bcl-2): 1 nM
